Results reported in article PMC4640888, “Discovery and Characterization of a Potent Interleukin-6 Binding Peptide with Neutralizing Activity In Vivo” (PLoS ONE, 2015).
Each block holds one compound with its values, some of them ahead of it. Positions of bridges follow the written chain, without caps; N, C: chain ends. Non-standard residues stand in square brackets, D forms with d. Residues, ends and D or L forms follow the SMILES beside them. Phe(4-F) = N[C@@H](Cc1ccc(F)cc1)C(=O)O; Gla = N[C@@H](CC(C(=O)O)C(=O)O)C(=O)O; Cha = N[C@@H](CC1CCCCC1)C(=O)O

Legend:
IL-6/IL-6R = target: T1, IL-6/IL-6R (Homo sapiens, UniProt P05231); test: IL-6 – IL-6R competition ELISA; format: binding; settings: compared to PN-1454
T1 construct: purchased PeproTech
T1 sequence (P05231 30-212): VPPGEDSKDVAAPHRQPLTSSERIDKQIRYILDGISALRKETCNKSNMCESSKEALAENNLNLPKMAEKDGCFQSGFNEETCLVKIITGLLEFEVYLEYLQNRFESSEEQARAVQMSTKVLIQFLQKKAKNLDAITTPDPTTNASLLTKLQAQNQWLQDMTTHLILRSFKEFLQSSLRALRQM
Procedure: Peptides were initially evaluated using a competitive enzyme-linked immunosorbent assay (ELISA). High binding 96-well microtiter plates (half-area, Corning Life Sciences, Corning, NY)) were coated with 0.1 μg per well of IL-6R (PeproTech, Rocky Hill, NJ) overnight at 4°C. The wells were then blocked for 2 h with a 1% BSA (Sigma, St. Louis, MO) solution containing 0.1% Tween-20 (Amresco, Solon, OH) and subsequently washed with wash buffer (PBS containing 0.1% Tween-20). Peptides were serially diluted in assay buffer (0.1% BSA, 0.05% Tween-20 in PBS) and incubated with a 50 pM biotinylated IL-6 (PeproTech) for 30 min at room temperature. This mixture was then transferred to an assay plate, and the plate incubated for 1 h. The plate was washed with wash buffer, and presence of bound IL-6 detected through addition of streptavidin poly-horseradish peroxidase conjugate (Pierce, Rockford IL). Plates were developed using a TMB substrate kit (Pierce) and stopped with 2N H2SO4. Inhibition of complex formation was measured as a reduction in absorbance at 450 nm.

[1] = Comparative PK of PEGylated peptides in rats; format: in vivo; settings: rat; male rats, single SC dose 0.23 μmol/kg, plasma, LC-MS/MS, non-compartmental; read-out: PK half-life (t1/2) (converted)
Procedure: Male rats for pharmacokinetic studies were obtained from Harlan Laboratories (South Easton, MA. […] For all time points, blood samples were collected via retro-orbital eye bleed or exsanguination via abdominal aorta into tubes containing K2EDTA and were processed into plasma, which was placed in Eppendorf Protein LoBind tubes and stored frozen at approximately -70°C until quantitative bioanalysis.
The dosing solutions were formulated just prior to administration, in sterile 1X PBS with 0.1% BSA. Plasma sample extraction was performed by aliquoting 100 μL of each rat plasma sample into a standard 96-well plate. To each well, 400 μL of 5% formic acid in acetonitrile (containing 200 ng/mL of internal standard) was added. The plate was vortexed at high speed for approximately 10 min and then centrifuged for 15 min, 4700 x g at 4°C. Supernatant (425 μL) was transferred into a clean 96-well plate and evaporated to dryness under nitrogen at approximately 50°C. The extracts were then reconstituted in 50 μL of 1% formic acid in 60% acetonitrile.
Reconstituted extracts (5 μL) were analyzed by liquid chromatography-tandem mass spectrometry (LC-MS/MS) with positive electrospray ionization (QTrap 5500, AB SCIEX, Framingham, MA). […]

[2] = target: IL-6-induced pSTAT3 in U937 cells (Homo sapiens, UniProt P05231); test: pSTAT3 HTRF assay in U937 cells; format: cell-based
IL-6-induced pSTAT3 in U937 cells, sequence (P05231 30-212): as above
Procedure: Peptides were serially diluted in medium containing 10% fetal bovine serum (FBS)/4% DMSO, then added to recombinant IL-6 (Xtal Biostructures, Inc., Natick, MA) at 28.2 ng/mL and the resulting plate was incubated at room temperature with shaking for 2.5 h at 37°C. […] After incubation for 12 min at 37°C the cells were centrifuged at 4°C (1400 rpm for 5 min) and the media was removed from the plates. Cells were placed on ice and 50 μL lysis buffer (Cisbio Assays, Bedford MA) was added. Phosphorylation of STAT3 was detected as described by the provider (Cisbio Assays). Briefly, cells were lysed for 30 min at room temperature and then 16 μL of lysates was added to a 384-well Proxiplate (Perkin Elmer, Waltham, MA). Anti-STAT3-d2+anti pSTAT-3-K detection cocktail (4μL; Cisbio Assays) was then added to the wells and the plate covered with a plate sealer and returned to 4°C overnight. Plates were then read with an Envision plate reader at ex 340, em 615 and 665 nm. […] These mixtures were then added to U937 cells for 15 min at 37°C and pSTAT3 was detected as described above.

IL-6 = settings: cited from earlier work
Procedure: The inhibitory potency of PN-2921 was assessed in human whole blood ...

fold improvement in IC50 in the competitive ELISA (IL-6/IL-6R): ~ 20 fold
Compound: CC[C@H](C)[C@@H]1NC(=O)[C@H](CCCCN)NC(=O)CNC(=O)[C@H](Cc2c[nH]c3ccccc23)NC(=O)[C@H](CCCNC(=N)N)NC(=O)[C@H](CCC(N)=O)NC(=O)[C@H](CCC(=O)O)NC(=O)[C@H](CO)NC(=O)[C@H](CC(N)=O)NC(=O)[C@H](CC(C)C)NC(=O)[C@H](CC(N)=O)NC(=O)[C@@H]2CCCN2C(=O)[C@H](CC(=O)O)NC(=O)[C@H](CC(C)C)NC(=O)[C@H](Cc2ccccc2)NC(=O)[C@H](C)NC(=O)[C@H](CCC(=O)O)NC(=O)[C@H](CC(C)C)NC(=O)[C@H](CC(C)C)NC(=O)[C@H](CCCNC(=N)N)NC(=O)[C@H](CCCNC(=N)N)NC(=O)[C@H]([C@@H](C)CC)NC(=O)[C@@H](NC(=O)[C@H](CCC(N)=O)NC(=O)[C@H](CC(C)C)NC(=O)[C@H](CC(N)=O)NC(=O)[C@H](Cc2ccccc2)NC(C)=O)CSSC[C@@H](C(N)=O)NC(=O)[C@H](CC(=O)O)NC(=O)[C@H](CC(=O)O)NC(=O)[C@H](CC(N)=O)NC(=O)[C@H]([C@@H](C)CC)NC(=O)[C@H](CO)NC(=O)[C@H](CC(=O)O)NC1=O [PN-1484] (Ac-FNLQCIRRLLEAFLDPNLNSEQRWGKIDSINDDC-NH2; disulfide 5-34 (inferred))

half-life [1]: 204 min
Compound: CC[C@H](C)[C@@H]1NC(=O)[C@@H](NC(=O)[C@H](CC(=O)O)NC(=O)[C@H](CC2CCCCC2)NC(=O)[C@H](CC(=O)O)NC(=O)[C@H](CO)NC(=O)[C@H](CCC(N)=O)NC(C)=O)CSSC[C@@H](C(=O)N[C@@H](CCC(=O)O)C(=O)O)NC(=O)[C@H](CCC(=O)O)NC(=O)[C@H](CC(=O)O)NC(=O)[C@H](CC(N)=O)NC(=O)[C@H]([C@@H](C)CC)NC(=O)[C@H](CCCCN)NC(=O)[C@H](CC(C(=O)O)C(=O)O)NC(=O)[C@H]([C@@H](C)CC)NC(=O)[C@H](CCCCN)NC(=O)[C@H](CCC(=O)O)NC(=O)[C@H](Cc2c[nH]c3ccccc23)NC(=O)[C@H](CCCNC(=N)N)NC(=O)[C@H](CCC(N)=O)NC(=O)[C@H](CCC(=O)O)NC(=O)[C@H](CCC(=O)O)NC(=O)[C@H]([C@@H](C)O)NC(=O)[C@H](CC(C)C)NC(=O)[C@H](CC(N)=O)NC(=O)[C@@H]2CCCN2C(=O)[C@H](CC(=O)O)NC(=O)[C@H](CC(C)C)NC(=O)[C@H](Cc2ccc(F)cc2)NC(=O)[C@H](C)NC(=O)[C@H](CCC(=O)O)NC(=O)[C@H](CC(C)C)NC(=O)[C@H](CC(C)C)NC(=O)[C@H](CCCNC(=N)N)NC(=O)[C@H](Cc2c[nH]cn2)NC1=O [PN-2365] (Ac-QSD[Cha]DCIHRLLEA[Phe(4-F)]LDPNLTEEQRWEKI[Gla]KINDECE-OH; disulfide 6-35)

Compound: CC[C@H](C)[C@@H]1NC(=O)[C@@H](NC(=O)[C@H](CC(=O)O)NC(=O)[C@H](CC2CCCCC2)NC(=O)[C@H](CC(=O)O)NC(=O)[C@H](CO)NC(=O)[C@H](CCC(N)=O)NC(C)=O)CSSC[C@@H](C(=O)N[C@@H](CCC(=O)O)C(=O)O)NC(=O)[C@H](CCC(=O)O)NC(=O)[C@H](CC(=O)O)NC(=O)[C@H](CC(N)=O)NC(=O)[C@H]([C@@H](C)CC)NC(=O)[C@H](CCCCN)NC(=O)[C@H](CC(C(=O)O)C(=O)O)NC(=O)[C@H]([C@@H](C)CC)NC(=O)[C@H](CCCNC(=N)N)NC(=O)[C@H](CCC(=O)O)NC(=O)[C@H](Cc2c[nH]c3ccccc23)NC(=O)[C@H](CCCNC(=N)N)NC(=O)[C@H](CCC(N)=O)NC(=O)[C@H](CCC(=O)O)NC(=O)[C@H](CCC(=O)O)NC(=O)[C@H]([C@@H](C)O)NC(=O)[C@H](CC(C)C)NC(=O)[C@H](CC(N)=O)NC(=O)[C@@H]2CCCN2C(=O)[C@H](CC(=O)O)NC(=O)[C@H](CC(C)C)NC(=O)[C@H](Cc2ccc(F)cc2)NC(=O)[C@H](C)NC(=O)[C@H](CCC(=O)O)NC(=O)[C@H](CC(C)C)NC(=O)[C@H](CC(C)C)NC(=O)[C@H](CCCNC(=N)N)NC(=O)[C@H](Cc2c[nH]cn2)NC1=O [PN-2519] (Ac-QSD[Cha]DCIHRLLEA[Phe(4-F)]LDPNLTEEQRWERI[Gla]KINDECE-OH; disulfide 6-35)
fold improvement in cell-based activity ([2]; compared to PN-1974, U937 pSTAT3): ~ 1000 fold
antagonist activity in the IL-6 pSTAT3 assay in U937 cells (Fig 2C) ([2]; effect of PEG molecular weight, PEGylation at position 29): comparable

Compound: siltuximab: monoclonal antibody specific for IL-6
potency (IL-6): pM range
